*1 amine or outer side, *2 acyl side, *3 side chain or, on linkers, in order; H or OH if unused. Where a SMILES comes first, the peptide text is derived from it. Bridges are numbered along the chain shown (N, C = ends). [ ]: non-standard residue; d: D form. The star is where a group is joined. hPhe(3-Cl-4-CF3) = N[C@@H](CCc1ccc(C(F)(F)F)c(Cl)c1)C(=O)O; NPrPhe(4-CF3) = CCCN[C@@H](Cc1ccc(C(F)(F)F)cc1)C(=O)O; X30 = CCN([C@H](C(=O)[*:2])C1CCCC1)[*:1]; NMeGly(cPent) = CN[C@H](C(=O)O)C1CCCC1; NMeD = CN[C@@H](CC(=O)O)C(=O)O; NMeL = CN[C@@H](CC(C)C)C(=O)O; Ac6c = NC1(C(=O)O)CCCCC1; Morpholide = C1CN(*)CCO1; NMeA = CN[C@@H](C)C(=O)O; Ac5c = NC1(C(=O)O)CCCC1; Aze = O=C(O)[C@@H]1CCN1; Sar = CNCC(=O)O
Tests used:
[1] = biological target: HRAS wild-type protein (Homo sapiens, UniProt P01112); assay: Binding to HRAS by surface plasmon resonance (SPR), KD and KD ratio to KRAS
HRAS wild-type protein, sequence (P01112 whole entry): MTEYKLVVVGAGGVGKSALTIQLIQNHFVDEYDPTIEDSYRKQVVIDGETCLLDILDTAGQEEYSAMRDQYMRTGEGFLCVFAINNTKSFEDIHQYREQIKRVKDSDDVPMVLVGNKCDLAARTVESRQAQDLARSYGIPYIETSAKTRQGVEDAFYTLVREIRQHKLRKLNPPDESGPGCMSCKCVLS
Method in brief: (§1)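 Affinity is measured by surface plasmon resonance at 30°C against captured, GDP-loaded RAS carrying a biotinylated Avi tag. Compounds are titrated by single-cycle kinetics, and KD comes from a 1:1 fit.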

[2] = biological target: GDP-bound NRAS wild-type protein (Homo sapiens, UniProt P01111); assay: Binding to NRAS by surface plasmon resonance (SPR), KD and KD ratio to KRAS
GDP-bound NRAS wild-type protein, sequence (P01111 whole entry): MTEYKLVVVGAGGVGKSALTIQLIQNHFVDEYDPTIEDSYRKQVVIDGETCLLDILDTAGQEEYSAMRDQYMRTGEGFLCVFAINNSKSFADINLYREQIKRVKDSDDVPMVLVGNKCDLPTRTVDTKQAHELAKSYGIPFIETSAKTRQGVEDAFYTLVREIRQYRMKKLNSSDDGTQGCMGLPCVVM
Method in brief: as §1

[3] = tested on: human lung cancer strain NCI-H441; type: cell-based
Method in brief: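 Readout: […] after the ATP-based reagent. Compound: serial dilutions in dimethyl sulfoxide.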

[4] = ratio of KD value for HRAS wild-type protein to KD value for KRAS (SPR)
[5] = ratio of KD value for GDP-bound NRAS wild-type protein to KD value for KRAS (SPR)
[6] = ratio of the KD value with respect to HRAS wild-type protein to the KD value with respect to KRAS
[7] = ratio of the KD value with respect to GDP-bound NRAS wild-type protein to the KD value with respect to KRAS
[8] = ratio of KD for HRAS wild-type protein to KD for KRAS
[9] = ratio of KD for GDP-bound NRAS wild-type protein to KD for KRAS

| Structure (SMILES) | HRAS /KRAS [1, 4] | NRAS /KRAS [2, 5] | IC50 [3] | HRAS /KRAS [1, 6] | NRAS /KRAS [2, 7] | HRAS /KRAS [1, 8] | NRAS /KRAS [2, 9] |
| --- | --- | --- | --- | --- | --- | --- | --- |
| CC[C@H](C)[C@@H]1NC(=O)[C@H](CC2CC2)N(C)C(=O)C[C@@H](C(=O)N(C)CC)N(C)C(=O)[C@H](C2CCCC2)N(C)C(=O)C2(CC(C)(C)C2)NC(=O)[C@@H]2C[C@@H](F)CN2C(=O)[C@H](CCc2cc(F)c(C(F)(F)F)c(F)c2)NC(=O)CN(C)C(=O)[C@H](Cc2ccc(C(F)(F)F)cc2)N2CC/C=C\C[C@@H](C2=O)N(C)C(=O)CN(C)C1=O [PP1570] | A (a compound having 10 or more and less than 20 is denoted as A) | AA (a compound having 20 or more is denoted as AA) | 2.6 nM | – | – | – | – |
| CCCOC[C@H]1C(=O)N[C@@H]([C@@H](C)CC)C(=O)N(C)CC(=O)N(C)[C@H]2C/C=C\CCN(C2=O)[C@@H](Cc2ccc(C(F)(F)F)cc2)C(=O)N(C)CC(=O)N[C@@H](CCc2cc(F)c(C(F)(F)F)c(F)c2)C(=O)N2C[C@H](OCC)C[C@H]2C(=O)NC2(CC(C)(C)C2)C(=O)N(C)[C@@H](C2CCCC2)C(=O)N(C)[C@H](C(=O)N(C)CC)CC(=O)N1C [PP1572] | A (a compound having 10 or more and less than 20 is denoted as A) | A (a compound having 10 or more and less than 20 is denoted as A) | 3.6 nM | – | – | – | – |
| CC[C@H](C)[C@@H]1NC(=O)[C@H](CC(C)C)N(C)C(=O)C[C@@H](C(=O)N(C)CC)N(C)C(=O)[C@H](C2CCCC2)N(C)C(=O)C2(CCC2)NC(=O)[C@@H]2C[C@H](C)CN2C(=O)[C@H](CCc2ccc(C(F)(F)F)c(OC)c2)NC(=O)CN(C)C(=O)[C@H](Cc2ccc(C)cc2)N2CC/C=C\C[C@@H](C2=O)N(C)C(=O)CN(C)C1=O [PP1904] | – | – | 18.3 nM | B (a compound having 3 or more and less than 10 is denoted as B) | A (a compound having 10 or more and less than 20 is denoted as A) | – | – |
| CCO[C@@H]1C[C@H]2C(=O)NC3(CC(C)(C)C3)C(=O)N(C)[C@@H](C3CCCC3)C(=O)N(C)[C@H](C(=O)N3CCCCC3)CC(=O)N(C)[C@@H](CC)C(=O)N[C@@H]([C@@H](C)CC)C(=O)N(C)CC(=O)N(C)[C@H]3C/C=C\CCN(C3=O)[C@@H](Cc3ccc(C(F)(F)F)cc3)C(=O)N(C)CC(=O)N[C@@H](CCc3cc(F)c(C(F)(F)F)c(F)c3)C(=O)N2C1 [PP1945] | – | – | 33.8 nM | A (a compound having 10 or more and less than 20 is denoted as A) | AA (a compound having 20 or more is denoted as AA) | – | – |
| CC[C@H](C)[C@@H]1NC(=O)[C@H](CC(C)C)N(C)C(=O)C[C@@H](C(=O)N2CCOCC2)N(C)C(=O)[C@H](C2CCCC2)N(C)C(=O)C2(CCCC2)NC(=O)[C@@H]2CCCN2C(=O)[C@H](CCc2ccc(C(F)(F)F)c(Cl)c2)NC(=O)CN(C)C(=O)[C@H](C2CCCC2)N(CC)C(=O)CN(C)C(=O)CN(C)C1=O [PP0024] ([NMeL]I[Sar][Sar][X30][Sar][hPhe(3-Cl-4-CF3)]P[Ac5c][NMeGly(cPent)][NMeD]-Morpholide; lactam N-11) | – | – | 102 nM | – | – | C (A compound having a KD ratio of 0.1 or more and less than 3 is denoted as C) | B (a compound having 3 or more and less than 10 is denoted as B) |
| CCO[C@@H]1C[C@H]2C(=O)NC3(CCC3)C(=O)N(C)[C@@H](C3CCCC3)C(=O)N(C)[C@H](C(=O)N(C)C)CC(=O)N(C)[C@@H](CC3CC3)C(=O)N[C@@H]([C@@H](C)CC)C(=O)N(C)CC(=O)N(C)[C@H]3CCCCN(C3=O)[C@@H](Cc3ccc(C(F)(F)F)cc3)C(=O)N(C)CC(=O)N[C@@H](CCc3cc(F)c(C(F)(F)F)c(F)c3)C(=O)N2C1 [PP0697] | – | – | 3.8 nM | C (A compound having a KD ratio of 0.1 or more and less than 3 is denoted as C) | C (A compound having a KD ratio of 0.1 or more and less than 3 is denoted as C) | – | – |
| CCCN1C(=O)[C@@H]2CCN2C(=O)[C@H](C)N(C)C(=O)[C@H]([C@@H](C)CC)NC(=O)[C@H](CC(C)C)N(C)C(=O)C[C@@H](C(=O)N2CCOCC2)N(C)C(=O)[C@H](C2CCCC2)N(C)C(=O)C2(CCCCC2)NC(=O)[C@@H]2CCCN2C(=O)[C@H](CCc2ccc(C(F)(F)F)c(Cl)c2)NC(=O)CN(C)C(=O)[C@@H]1Cc1ccc(C(F)(F)F)cc1 [PP0226] ([NMeL]I[NMeA][Aze][NPrPhe(4-CF3)][Sar][hPhe(3-Cl-4-CF3)]P[Ac6c][NMeGly(cPent)][NMeD]-Morpholide; lactam N-11) | – | – | 15.3 nM | – | – | B (a compound having 3 or more and less than 10 is denoted as B) | C (A compound having a KD ratio of 0.1 or more and less than 3 is denoted as C) |
| CC[C@H](C)[C@@H]1NC(=O)[C@H](COC)N(C)C(=O)C[C@@H](C(=O)N2CCOCC2)N(C)C(=O)[C@H](C2CCCC2)N(C)C(=O)C2(CCCC2)NC(=O)[C@@H]2CCCN2C(=O)[C@H](CCc2ccc(C(F)(F)F)c(Cl)c2)NC(=O)CN(C)C(=O)[C@H](Cc2ccc(F)cc2)N2CCCCC[C@@H](C2=O)N(C)C(=O)CN(C)C1=O [PP0960] | – | – | 101 nM | – | – | B (a compound having 3 or more and less than 10 is denoted as B) | B (a compound having 3 or more and less than 10 is denoted as B) |
